Data on 1 compound can be found in PMC4467461, “Small-molecule activation of SERCA2a SUMOylation for the treatment of heart failure” (Nature Communications, 2015).

SMILES strings stand for the structures.

This assay concerns the target T1, ubiquitin-activating enzyme (Ub E1) (Homo sapiens, UniProt P22314).
T1 sequence (P22314 1-1058): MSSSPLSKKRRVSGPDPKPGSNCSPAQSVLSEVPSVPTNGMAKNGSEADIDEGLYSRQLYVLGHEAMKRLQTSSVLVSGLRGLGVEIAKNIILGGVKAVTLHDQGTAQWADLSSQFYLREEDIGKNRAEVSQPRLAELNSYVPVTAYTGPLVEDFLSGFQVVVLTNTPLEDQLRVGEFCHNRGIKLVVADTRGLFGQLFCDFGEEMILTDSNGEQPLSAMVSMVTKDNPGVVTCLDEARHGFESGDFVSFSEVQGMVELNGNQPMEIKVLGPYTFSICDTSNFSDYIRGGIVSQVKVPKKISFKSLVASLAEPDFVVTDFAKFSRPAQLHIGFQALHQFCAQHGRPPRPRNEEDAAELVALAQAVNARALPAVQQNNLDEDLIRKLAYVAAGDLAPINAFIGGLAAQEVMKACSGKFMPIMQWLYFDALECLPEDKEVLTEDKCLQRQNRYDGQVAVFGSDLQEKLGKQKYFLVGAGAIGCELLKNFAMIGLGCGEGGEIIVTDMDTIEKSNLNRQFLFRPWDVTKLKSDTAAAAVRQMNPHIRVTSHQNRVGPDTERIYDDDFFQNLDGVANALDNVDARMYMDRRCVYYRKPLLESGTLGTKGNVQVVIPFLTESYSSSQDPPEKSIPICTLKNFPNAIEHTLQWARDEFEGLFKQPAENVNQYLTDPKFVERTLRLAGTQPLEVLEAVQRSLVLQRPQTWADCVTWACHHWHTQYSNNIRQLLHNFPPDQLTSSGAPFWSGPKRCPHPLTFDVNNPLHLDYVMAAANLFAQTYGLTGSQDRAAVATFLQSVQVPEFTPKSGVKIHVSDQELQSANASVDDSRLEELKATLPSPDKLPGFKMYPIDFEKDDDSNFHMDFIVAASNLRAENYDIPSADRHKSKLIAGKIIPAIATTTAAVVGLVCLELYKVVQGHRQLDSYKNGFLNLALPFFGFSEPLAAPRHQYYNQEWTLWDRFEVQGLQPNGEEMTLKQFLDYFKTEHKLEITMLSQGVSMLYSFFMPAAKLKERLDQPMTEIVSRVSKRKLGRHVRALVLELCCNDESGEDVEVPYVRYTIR
Kind of assay: Ubiquitin-activating E1 enzyme activity (ATP hydrolysis and in vitro conjugation assays). Type of assay: biochemical. The settings on record: at concentrations up to 100 μM. The procedure: Biochemical activity of SUMO-specific E1 enzymes was examined by ATPase assay and in-vitro gel-shifting assays. ATP hydrolysis activity of E1 enzymes was measured by using pyrophosphate assay kit (Abcam Inc.). E1 (0.05 μM), 0.25 μM E2, 12.5 μM SUMO-1 and 1 mM ATP with N106 or DMSO were used for the assays. The E1-thioester formation was analysed in reaction mixtures containing 0.05 μM E1, 12.5 μM SUMO-1 and 1 mM ATP with N106 or DMSO. The E1-dependent E2-SUMO-1 thioester formation was assessed using reaction containing 0.05 μM E1, 0.25 μM E2, 12.5 μM SUMO-1 and 1 mM ATP with N106 or DMSO. Assays were incubated at 37 °C for 30 min and were mixed with non-reducing sample buffer, and analysed in non-reducing condition. Western blotting using antibodies against SAE2 and Ubc9 detected the SUMO conjugations. […]
Supplementary Figure 5. […] Ubiquitin activating E1 enzyme activity was determined by ATP hydrolysis and in vitro conjugation assays. […] Inorganic pyrophosphate resulting from ATP hydrolysis in E1-catalazed ubiquitin activity was quantified with the use of a fluorogenic pyrophosphate assay kit. […] Thioester bond formation between ubiquitin specific E1 enzyme and ubiquitin were detected by Western blot analysis. […] E1-dependent thioester bond formation between E2 and ubiquitin was detected by Western blotting with anti-ubiquitin antibody. […]

Regarding `COc1ccc(-c2nnc(Nc3nc4c(OC)cccc4s3)o2)cc1` [Compound N106, N-(4-methoxybenzo[d]thiazol-2-yl)-5-(4-methoxyphenyl)-1,3,4-oxadiazol-2-amine], the “in-vitro activity of Ub E1 (ubiquitin activation, conjugation of ubiquitin to Ub E1, Ub E1-dependent conjugation to E2 cdc32)” value is “did not significantly stimulate”.
